Assay results: the supplement of paper PMC10307832

Assays:
Experiment in all cases: relative viability (nuclei count vs DMSO), 5 days (fraction); higher = more cells survive
ChaGo-K-1 = tested on: ChaGo-K-1
Procedure, shortened: (§1)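 Lung cancer cell lines, seeded in 1536-well plates, were treated the following day by pin tool with a single drug or with five library-drug doses (not always all listed) in √10 steps on top of a fixed anchor-drug dose. Cells were fixed and nuclei stained in one step after 5 days, and nuclei were counted. Relative viability is the nuclei count for treated wells divided by that for vehicle wells, reported as medians of duplicate plates.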

EBC-1 = tested on: EBC-1
Procedure, shortened: as §1

Calu-6 = tested on: Calu-6
Procedure, shortened: as §1

IA-LM = tested on: IA-LM
Procedure, shortened: as §1

NCI-H1299 = tested on: NCI-H1299
Procedure, shortened: as §1

NCI-H1703 = tested on: NCI-H1703
Procedure, shortened: as §1

A549 = tested on: A549
Procedure, shortened: as §1

CC(C)Oc1cc(Nc2nc(N[C@@H](C)c3ccc(F)cn3)ncc2Cl)n[nH]1 [AZ23] + CC(C)C[C@H](NC(=O)[C@H](Cc1ccccc1)NC(=O)c1cnccn1)B(O)O [Bortezomib] (partner 0.002 µM)
relative viability (ChaGo-K-1; first compound 0.01 µM): 0.96
relative viability (ChaGo-K-1; first compound 0.03162 µM): 1.22
relative viability (ChaGo-K-1; first compound 0.3162 µM): 1.16
relative viability (EBC-1; first compound 0.01 µM): 0.579
relative viability (EBC-1; first compound 0.03162 µM): 0.64
relative viability (EBC-1; first compound 0.3162 µM): 0.493
relative viability (Calu-6; first compound 0.03162 µM): 1.15
relative viability (Calu-6; first compound 0.3162 µM): 1.04
relative viability (IA-LM; first compound 0.01 µM): 1
relative viability (IA-LM; first compound 0.03162 µM): 0.883
relative viability (IA-LM; first compound 0.3162 µM): 0.776
relative viability (NCI-H1299; first compound 0.01 µM): 1.03
relative viability (NCI-H1299; first compound 0.03162 µM): 1.02
relative viability (NCI-H1299; first compound 0.3162 µM): 1.1
relative viability (NCI-H1703; first compound 0.03162 µM): 0.367
relative viability (NCI-H1703; first compound 0.3162 µM): 0.363

COc1cc(N2CCC(C(N)=O)CC2)ccc1Nc1nc(N)c(Cl)c(Nc2ccccc2S(=O)(=O)C(C)C)n1 [HG-5-88-01] + C[C@]1(O)C[C@@H](c2nc(-c3ccc4ccc(-c5ccccc5)nc4c3)c3c(N)nccn32)C1 [Linsitinib] (partner 1 µM)
relative viability (A549; first compound 0.04 µM): 0.59
relative viability (A549; first compound 0.1265 µM): 0.771
relative viability (A549; first compound 0.4 µM): 0.634
relative viability (A549; first compound 1.265 µM): 0.432
relative viability (A549; first compound 4 µM): 0.796
relative viability (EBC-1; first compound 0.04 µM): 0.892
relative viability (EBC-1; first compound 0.1265 µM): 0.373
relative viability (EBC-1; first compound 0.4 µM): 0.924
relative viability (EBC-1; first compound 1.265 µM): 0.847
relative viability (EBC-1; first compound 4 µM): 0.927
relative viability (Calu-6; first compound 0.04 µM): 0.938
relative viability (Calu-6; first compound 0.1265 µM): 0.837
relative viability (Calu-6; first compound 0.4 µM): 0.95
relative viability (Calu-6; first compound 1.265 µM): 0.929
relative viability (Calu-6; first compound 4 µM): 1.02
relative viability (IA-LM; first compound 0.04 µM): 0.602
relative viability (IA-LM; first compound 0.1265 µM): 0.383
relative viability (IA-LM; first compound 0.4 µM): 0.488
relative viability (IA-LM; first compound 1.265 µM): 0.314
relative viability (IA-LM; first compound 4 µM): 0.542
relative viability (NCI-H1299; first compound 0.04 µM): 0.999
relative viability (NCI-H1299; first compound 0.1265 µM): 0.97
relative viability (NCI-H1299; first compound 0.4 µM): 0.945
relative viability (NCI-H1299; first compound 1.265 µM): 0.97
relative viability (NCI-H1299; first compound 4 µM): 1.1
relative viability (NCI-H1703; first compound 0.04 µM): 0.689
relative viability (NCI-H1703; first compound 0.1265 µM): 0.648
relative viability (NCI-H1703; first compound 1.265 µM): 0.486
relative viability (NCI-H1703; first compound 4 µM): 1.62

Clc1ccc(Nc2nnc(Cc3ccncc3)c3ccccc23)cc1 [Vatalanib] + CC(C)C[C@H](NC(=O)[C@H](Cc1ccccc1)NC(=O)c1cnccn1)B(O)O [Bortezomib] (partner 0.002 µM)
relative viability (ChaGo-K-1; first compound 0.04 µM): 0.936
relative viability (ChaGo-K-1; first compound 0.1265 µM): 0.938
relative viability (ChaGo-K-1; first compound 1.265 µM): 0.991
relative viability (ChaGo-K-1; first compound 4 µM): 1.03
relative viability (EBC-1; first compound 0.04 µM): 0.489
relative viability (EBC-1; first compound 0.1265 µM): 0.498
relative viability (EBC-1; first compound 0.4 µM): 0.807
relative viability (EBC-1; first compound 1.265 µM): 0.519
relative viability (EBC-1; first compound 4 µM): 0.524
relative viability (Calu-6; first compound 0.04 µM): 1.07
relative viability (Calu-6; first compound 0.1265 µM): 0.991
relative viability (Calu-6; first compound 0.4 µM): 1.18
relative viability (Calu-6; first compound 1.265 µM): 0.911
relative viability (Calu-6; first compound 4 µM): 1.1
relative viability (IA-LM; first compound 0.04 µM): 0.963
relative viability (IA-LM; first compound 0.1265 µM): 0.955
relative viability (IA-LM; first compound 0.4 µM): 0.91
relative viability (IA-LM; first compound 1.265 µM): 0.763
relative viability (IA-LM; first compound 4 µM): 0.871
relative viability (NCI-H1299; first compound 0.04 µM): 1.02
relative viability (NCI-H1299; first compound 0.1265 µM): 1.06
relative viability (NCI-H1299; first compound 0.4 µM): 1
relative viability (NCI-H1299; first compound 1.265 µM): 1.04
relative viability (NCI-H1299; first compound 4 µM): 1.02
relative viability (NCI-H1703; first compound 0.04 µM): 0.464
relative viability (NCI-H1703; first compound 0.4 µM): 0.558
relative viability (NCI-H1703; first compound 1.265 µM): 0.237
relative viability (NCI-H1703; first compound 4 µM): 0.21

CC(C)Oc1cc(Nc2nc(N[C@@H](C)c3ccc(F)cn3)ncc2Cl)n[nH]1 [AZ23] + C[C@]1(O)C[C@@H](c2nc(-c3ccc4ccc(-c5ccccc5)nc4c3)c3c(N)nccn32)C1 [Linsitinib] (partner 1 µM)
relative viability (A549; first compound 0.01 µM): 0.659
relative viability (A549; first compound 0.03162 µM): 0.572
relative viability (A549; first compound 0.3162 µM): 0.701
relative viability (EBC-1; first compound 0.01 µM): 1.1
relative viability (EBC-1; first compound 0.03162 µM): 0.836
relative viability (EBC-1; first compound 0.3162 µM): 1.07
relative viability (Calu-6; first compound 0.03162 µM): 1.01
relative viability (Calu-6; first compound 0.3162 µM): 0.953
relative viability (IA-LM; first compound 0.01 µM): 0.601
relative viability (IA-LM; first compound 0.03162 µM): 0.386
relative viability (IA-LM; first compound 0.3162 µM): 0.627
relative viability (NCI-H1299; first compound 0.01 µM): 0.977
relative viability (NCI-H1299; first compound 0.03162 µM): 0.99
relative viability (NCI-H1299; first compound 0.3162 µM): 1.09
relative viability (NCI-H1703; first compound 0.03162 µM): 0.647
relative viability (NCI-H1703; first compound 0.3162 µM): 0.592
